Measured values: PubChem BioAssay AID1918935 (Molecular Pharmacology Branch, DTP, NCI, 2023)
pIC50: −log10 of the molar value. Where “and” joins values, the source holds several entries; their conditions need not be identical. Equal entries are not always repeated.

Tested on: 324938-238-R-J1-PDC complex spheroid viability
Assay: Anticancer human tumor 324938-238-R-J1-PDC patient-derived bladder carcinoma cell line growth inhibition
Settings: for viability, T/C: stronger effect = lower value
In short: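 Complex spheroids of tumor cells with HUVEC and human MSCs, exposed to iadademstat combined with other agents. Each agent tested in half-log steps from near clinical Cmax (else 10 microM top), DMSO ≤0.25%.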

[1] = curve of first compound, second compound 0.1 µM
[2] = curve of first compound, second compound 0.316 µM
[3] = curve of first compound, second compound 1 µM
[4] = curve of first compound, second compound 3.16 µM
[5] = curve of first compound, second compound 10 µM
[6] = second compound 0.1 µM, first compound 0.000316 µM
[7] = second compound 0.1 µM, first compound 0.001 µM
[8] = second compound 0.1 µM, first compound 0.00316 µM
[9] = second compound 0.1 µM, first compound 0.01 µM
[10] = second compound 0.1 µM, first compound 0.0316 µM
[11] = second compound 0.1 µM, first compound 0.1 µM
[12] = second compound 0.316 µM, first compound 0.000316 µM
[13] = second compound 0.316 µM, first compound 0.001 µM
[14] = second compound 0.316 µM, first compound 0.00316 µM
[15] = second compound 0.316 µM, first compound 0.01 µM
[16] = second compound 0.316 µM, first compound 0.0316 µM
[17] = second compound 0.316 µM, first compound 0.1 µM
[18] = second compound 1 µM, first compound 0.000316 µM
[19] = second compound 1 µM, first compound 0.001 µM
[20] = second compound 1 µM, first compound 0.00316 µM
[21] = second compound 1 µM, first compound 0.01 µM
[22] = second compound 1 µM, first compound 0.0316 µM
[23] = second compound 1 µM, first compound 0.1 µM
[24] = second compound 3.16 µM, first compound 0.000316 µM
[25] = second compound 3.16 µM, first compound 0.001 µM
[26] = second compound 3.16 µM, first compound 0.00316 µM
[27] = second compound 3.16 µM, first compound 0.01 µM
[28] = second compound 3.16 µM, first compound 0.0316 µM
[29] = second compound 3.16 µM, first compound 0.1 µM
[30] = second compound 10 µM, first compound 0.000316 µM
[31] = second compound 10 µM, first compound 0.001 µM
[32] = second compound 10 µM, first compound 0.00316 µM
[33] = second compound 10 µM, first compound 0.01 µM
[34] = second compound 10 µM, first compound 0.0316 µM
[35] = second compound 10 µM, first compound 0.1 µM
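Also: spheroids also contain HUVEC and human MSCs and agents combined with iadademstat; spheroids exposed to agents for 7 days before readout.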

## CC(C)CC(NC(=O)CNC(=O)c1cc(Cl)ccc1Cl)B1OC(=O)CC(CC(=O)O)(C(=O)O)O1 (stereo not given) + NC1CC1c1ccc(-c2cccc(O)c2)cc1
[1]
  pIC50: 8.78
[2]
  pIC50: 8.86
[3]
  pIC50: 8.86
[4]
  pIC50: 8.87
[5]
  pIC50: 8.93
[6]
  viability, T/C: 94.4%
[7]
  viability, T/C: 68.7%
[8]
  viability, T/C: 25.7%
[9]
  viability, T/C: 5.88%
[10]
  viability, T/C: 3.13%
[11]
  viability, T/C: 0.16%
[12]
  viability, T/C: 73%
[13]
  viability, T/C: 59.3%
[14]
  viability, T/C: 26.3%
[15]
  viability, T/C: 4.54%
[16]
  viability, T/C: 0.95%
[17]
  viability, T/C: 0.15%
[18]
  viability, T/C: 78.3%
[19]
  viability, T/C: 61.5%
[20]
  viability, T/C: 21.6%
[21]
  viability, T/C: 4.36%
[22]
  viability, T/C: 0.4%
[23]
  viability, T/C: 1.08%
[24]
  viability, T/C: 77.5%
[25]
  viability, T/C: 58.5%
[26]
  viability, T/C: 26.3%
[27]
  viability, T/C: 5.45%
[28]
  viability, T/C: 0.71%
[29]
  viability, T/C: 1.92%
[30]
  viability, T/C: 67.7%
[31]
  viability, T/C: 54.7%
[32]
  viability, T/C: 20.6%
[33]
  viability, T/C: 2.92%
[34]
  viability, T/C: 0.54%
[35]
  viability, T/C: 0.22%

## CC(C)c1c(-c2ccccc2)nc2c(C#N)c[nH]n2c1=O + NC1CC1c1ccc(-c2cccc(O)c2)cc1
[1]
  pIC50: < 5.00
[2]
  pIC50: < 5.00
[3]
  pIC50: < 5.00
[4]
  pIC50: < 5.00
[5]
  pIC50: < 5.00
[10]
  viability, T/C: 104%
[11]
  viability, T/C: 98.2%
Second compound 0.1 µM, first compound 0.316 µM
  viability, T/C: 101%
Second compound 0.1 µM, first compound 1 µM
  viability, T/C: 94%
Second compound 0.1 µM, first compound 3.16 µM
  viability, T/C: 90.8%
Second compound 0.1 µM, first compound 10 µM
  viability, T/C: 72.6%
[16]
  viability, T/C: 82.9%
[17]
  viability, T/C: 84.9%
Second compound 0.316 µM, first compound 0.316 µM
  viability, T/C: 87.2%
Second compound 0.316 µM, first compound 1 µM
  viability, T/C: 82.6%
Second compound 0.316 µM, first compound 3.16 µM
  viability, T/C: 88.7%
Second compound 0.316 µM, first compound 10 µM
  viability, T/C: 79.1%
[22]
  viability, T/C: 85.7%
[23]
  viability, T/C: 99.3%
Second compound 1 µM, first compound 0.316 µM
  viability, T/C: 85.4%
Second compound 1 µM, first compound 1 µM
  viability, T/C: 89.1%
Second compound 1 µM, first compound 3.16 µM
  viability, T/C: 81.7%
Second compound 1 µM, first compound 10 µM
  viability, T/C: 81%
[28]
  viability, T/C: 86.7%
[29]
  viability, T/C: 92.1%
Second compound 3.16 µM, first compound 0.316 µM
  viability, T/C: 86.5%
Second compound 3.16 µM, first compound 1 µM
  viability, T/C: 89.7%
Second compound 3.16 µM, first compound 3.16 µM
  viability, T/C: 82.7%
Second compound 3.16 µM, first compound 10 µM
  viability, T/C: 77.3%
[34]
  viability, T/C: 89.5%
[35]
  viability, T/C: 85.4%
Second compound 10 µM, first compound 0.316 µM
  viability, T/C: 86.9%
Second compound 10 µM, first compound 1 µM
  viability, T/C: 88.9%
Second compound 10 µM, first compound 3.16 µM
  viability, T/C: 89.3%
Second compound 10 µM, first compound 10 µM
  viability, T/C: 80.8%

## O=C(c1cc(Cc2n[nH]c(=O)c3ccccc23)ccc1F)N1CCN(C(=O)C2CC2)CC1
Compound 0.0316 µM
  viability, T/C: 100% and 104%
Compound 0.1 µM
  viability, T/C: 100% and 104%
Compound 0.316 µM
  viability, T/C: 107% and 96.3%
Compound 1 µM
  viability, T/C: 87.4% and 80.7%
Compound 3.16 µM
  viability, T/C: 64.5% and 48.9%
Compound 10 µM
  viability, T/C: 40.4% and 31.9%
Curve of compound
  pIC50: 5.20 and 5.51

## O=C(C=Cn1cnc(-c2cc(C(F)(F)F)cc(C(F)(F)F)c2)n1)NNc1cnccn1
Compound 0.00316 µM
  viability, T/C: 85.4% and 60.8%
Compound 0.01 µM
  viability, T/C: 44.7% and 28.6%
Compound 0.0316 µM
  viability, T/C: 17.7% and 14.8%
Compound 0.1 µM
  viability, T/C: 7.73% and 4.52%
Compound 0.316 µM
  viability, T/C: 4.23% and 3.45%
Compound 1 µM
  viability, T/C: 2.35% and 1.64%
Curve of compound
  pIC50: 8.07 and 8.33

## CCc1c2c(nc3ccc(O)cc13)-c1cc3c(c(=O)n1C2)COC(=O)[C@]3(O)CC
Compound 0.000949 µM
  viability, T/C: 7.99% and 9.82%
Compound 0.003 µM
  viability, T/C: 9.25% and 10.8%
Compound 0.00949 µM
  viability, T/C: 6.79% and 6.81%
Compound 0.03 µM
  viability, T/C: 2.02% and 1.48%
Compound 0.0949 µM
  viability, T/C: 0.16% and 0.66%
Compound 0.3 µM
  viability, T/C: 0.2% and 0.27%
Curve of compound
  pIC50: > 9.02

## O=C(C=Cc1cccc(S(=O)(=O)Nc2ccccc2)c1)NO + NC1CC1c1ccc(-c2cccc(O)c2)cc1
[1]
  pIC50: 6.80
[2]
  pIC50: 6.95
[3]
  pIC50: 7.06
[4]
  pIC50: 6.97
[5]
  pIC50: 7.53
Second compound 0.1 µM, first compound 0.00949 µM
  viability, T/C: 84.3%
Second compound 0.1 µM, first compound 0.03 µM
  viability, T/C: 75.3%
Second compound 0.1 µM, first compound 0.0949 µM
  viability, T/C: 59.1%
Second compound 0.1 µM, first compound 0.3 µM
  viability, T/C: 36.2%
Second compound 0.1 µM, first compound 0.949 µM
  viability, T/C: 24.5%
Second compound 0.1 µM, first compound 3 µM
  viability, T/C: 3.13%
Second compound 0.316 µM, first compound 0.00949 µM
  viability, T/C: 69%
Second compound 0.316 µM, first compound 0.03 µM
  viability, T/C: 64.2%
Second compound 0.316 µM, first compound 0.0949 µM
  viability, T/C: 52.6%
Second compound 0.316 µM, first compound 0.3 µM
  viability, T/C: 34.6%
Second compound 0.316 µM, first compound 0.949 µM
  viability, T/C: 21.9%
Second compound 0.316 µM, first compound 3 µM
  viability, T/C: 2.23%
Second compound 1 µM, first compound 0.00949 µM
  viability, T/C: 62.6%
Second compound 1 µM, first compound 0.03 µM
  viability, T/C: 55.4%
Second compound 1 µM, first compound 0.0949 µM
  viability, T/C: 50.5%
Second compound 1 µM, first compound 0.3 µM
  viability, T/C: 37.2%
Second compound 1 µM, first compound 0.949 µM
  viability, T/C: 20.1%
Second compound 1 µM, first compound 3 µM
  viability, T/C: 1.65%
Second compound 3.16 µM, first compound 0.00949 µM
  viability, T/C: 64.2%
Second compound 3.16 µM, first compound 0.03 µM
  viability, T/C: 65.9%
Second compound 3.16 µM, first compound 0.0949 µM
  viability, T/C: 50%
Second compound 3.16 µM, first compound 0.3 µM
  viability, T/C: 34.4%
Second compound 3.16 µM, first compound 0.949 µM
  viability, T/C: 23.6%
Second compound 3.16 µM, first compound 3 µM
  viability, T/C: 1.52%
Second compound 10 µM, first compound 0.00949 µM
  viability, T/C: 57.7%
Second compound 10 µM, first compound 0.03 µM
  viability, T/C: 47.1%
Second compound 10 µM, first compound 0.0949 µM
  viability, T/C: 40.1%
Second compound 10 µM, first compound 0.3 µM
  viability, T/C: 34.9%
Second compound 10 µM, first compound 0.949 µM
  viability, T/C: 24.6%
Second compound 10 µM, first compound 3 µM
  viability, T/C: 2.48%

## CC[C@@]1(O)C(=O)OCc2c1cc1n(c2=O)Cc2cc3c(CN(C)C)c(O)ccc3nc2-1 + NC1CC1c1ccc(-c2cccc(O)c2)cc1
[1]
  pIC50: 8.88
[2]
  pIC50: 8.95
[3]
  pIC50: 8.86
[4]
  pIC50: 8.91
[5]
  pIC50: 8.93
[6]
  viability, T/C: 82.5%
[7]
  viability, T/C: 57%
[8]
  viability, T/C: 27%
[9]
  viability, T/C: 7.09%
[10]
  viability, T/C: 7.47%
[11]
  viability, T/C: 8.37%
[12]
  viability, T/C: 68.2%
[13]
  viability, T/C: 52.5%
[14]
  viability, T/C: 25.4%
[15]
  viability, T/C: 6.5%
[16]
  viability, T/C: 7.53%
[17]
  viability, T/C: 6.02%
[18]
  viability, T/C: 67.8%
[19]
  viability, T/C: 58.2%
[20]
  viability, T/C: 27.7%
[21]
  viability, T/C: 6.31%
[22]
  viability, T/C: 6.22%
[23]
  viability, T/C: 8.13%
[24]
  viability, T/C: 69.7%
[25]
  viability, T/C: 53.6%
[26]
  viability, T/C: 28.6%
[27]
  viability, T/C: 7%
[28]
  viability, T/C: 5.72%
[29]
  viability, T/C: 6.54%
[30]
  viability, T/C: 66.1%
[31]
  viability, T/C: 52.7%
[32]
  viability, T/C: 28.8%
[33]
  viability, T/C: 10.2%
[34]
  viability, T/C: 8.64%
[35]
  viability, T/C: 9.59%

## CC(C)CC(NC(=O)C(Cc1ccccc1)NC(=O)c1cnccn1)B(O)O (stereo not given)
Compound 0.000316 µM
  viability, T/C: 95.8% and 79.7%
Compound 0.001 µM
  viability, T/C: 21.5% and 7.74%
Compound 0.00316 µM
  viability, T/C: 0.55% and 0.19%
Compound 0.01 µM
  viability, T/C: 0.21% and 1.23%
Compound 0.0316 µM
  viability, T/C: 0.46% and 0.17%
Compound 0.1 µM
  viability, T/C: 0.24% and 0.28%
Curve of compound
  pIC50: 9.19 and 9.29

## Nc1ncn(C2CC(O)C(CO)O2)c(=O)n1 (stereo not given)
Compound 0.00316 µM
  viability, T/C: 98.2% and 98.1%
Compound 0.01 µM
  viability, T/C: 90.8% and 96.7%
Compound 0.0316 µM
  viability, T/C: 81% and 89.9%
Compound 0.1 µM
  viability, T/C: 75.9% and 69.5%
Compound 0.316 µM
  viability, T/C: 62.2% and 57.2%
Compound 1 µM
  viability, T/C: 48.6% and 46.9%
Curve of compound
  pIC50: 6.03 and 6.14
